Values quoted from earlier work, collected in patent US10251778B2, “Therapeutics dispensing device and methods of making same” (Baylor College of Medicine, priority 2012, dated 2019).
Counter-ions that a name gives are not always drawn.

What was measured:
[1] = Acrylate Polymer Nanosuspensions
[2] = system: human cytomegalovirus (HCMV); conditions: Albumin Nanoparticles
[3] = not given; remark: listed apart in the source
[4] = in vitro
[5] = Poly(butyl)-cyano acrylate Nanopartilces

## CC(=O)Nc1nnc(S(N)(=O)=O)s1 [Acetazolamide]
Liposomes
  Result (IOP): Produced a marked decrease in IOP

## CC(C(=O)O)c1ccc(-c2ccccc2)c(F)c1 (stereo not drawn) [Flurbiprofen]
[1]
  Result (drug levels in aqueous humour): Increased drug levels in aqueous humour

## Nc1nc2c(ncn2COC(CO)CO)c(=O)[nH]1 [GCV]
[2]
  Result (antiviral activity): Increased antiviral aciivity against human

## CC[C@@H]1C(=O)OC[C@@H]1Cc1cncn1C [Pilocarpine HCl]
[3]; Liposomes
  Result (response and ocular bioavailability): Increased mitotic response and ocular

## CC[C@@H]1C(=O)OC[C@@H]1Cc1cncn1C [Pilocarpine nitrate]
[3]; Dendrimers
  Result (miotic activity): Prolonged miotic activity

## CC[C@@H]1C(=O)OC[C@@H]1Cc1cncn1C [Pilocarpine]
[3]; [5]
  Result (response): Enhanced mitotic response and decrease
Microemulsions
  Decreased IOP: Decreased IOP by 25%
[5]
  decrease in IOP: in IOP by 22%

## CC[C@@H]1C(=O)OC[C@@H]1Cc1cncn1C [pilocarpine base, pilocarpine]
[4]
  transcorneal penetration relative to the ionized form: 2-3 times
